Measurements: patent US20240400591A1 (Jacobio Pharmaceuticals Co., Ltd., priority 2021, published 2024)

Target: T1, His-p53 Y220C (94-294) protein (Homo sapiens, UniProt P04637, Y220C)
T1 construct: His-p53 Y220C (94-294) protein
Experiment: In vitro DNA binding assay (HTRF)
Assay type: biochemical
Settings: % activation normalized to 2 μM Ref-1a high control

| Compound | EC50 |
| --- | --- |
| COCCOc1cc(S(C)(=O)=O)ccc1NCC#Cc1sc2c(NC3CCN(C)CC3)cccc2c1CC(F)(F)F [Example 14, N-[2-[3-[2-(2-methoxyethoxy)-4-methylsulfonyl-anilino]prop-1-ynyl]-3-(2,2,2-trifluoroethyl)benzothiophen-7-yl]-1-methyl-piperidin-4-amine] | 199 nM |
| COCCCN1CCC(Nc2cccc3c(CC(F)(F)F)c(C#CCNc4ccc(S(C)(=O)=O)cc4OC)sc23)CC1 [Example 20, N-[2-[3-(2-methoxy-4-methylsulfonyl-anilino)prop-1-ynyl]-3-(2,2,2-trifluoroethyl)benzothiophen-7-yl]-1-(3-methoxypropyl)piperidin-4-amine] | 188 nM |
| COc1cc(S(=O)(=O)N(C)C)ccc1NCC#Cc1sc2c(NC3CCN(C)CC3)cccc2c1CC(F)(F)F [Example 21, 3-methoxy-N,N-dimethyl-4-((3-(7-((1-methylpiperidin-4-yl)amino)-3-(2,2,2-trifluoroethyl)benzo[b]thiophen-2-yl)prop-2-yn-1-yl)amino)benzenesulfonamide] | 341 nM |
| COc1cc(S(=O)(=O)N2CCOCC2)ccc1NCC#Cc1sc2c(NC3CCN(C)CC3)cccc2c1CC(F)(F)F [Example 22, N-(2-(3-((2-methoxy-4-(morpholinosulfonyl)phenyl)amino)prop-1-yn-1-yl)-3-(2,2,2-trifluoroethyl)benzo[b]thiophen-7-yl)-1-methylpiperidin-4-amine] | 288 nM |
| COc1cc(S(C)(=O)=O)ccc1NCC#Cc1sc2c(NC3C4CCC3CN(C)C4)cccc2c1CC(F)(F)F (stereo not shown) [Example 25, N-(2-(3-((2-methoxy-4-(methylsulfonyl)phenyl)amino)prop-1-yn-1-yl)-3-(2,2,2-trifluoroethyl)benzo[b]thiophen-7-yl)-3-methyl-3-azabicyclo[3.2.1]octan-8-amine] | 312 nM |
| COc1cc(S(C)(=O)=O)ccc1NCC#Cc1sc2c(NC3CC4CC3CN4C)cccc2c1CC(F)(F)F (stereo not shown) [Example 27, N-(2-(3-((2-methoxy-4-(methylsulfonyl)phenyl)amino)prop-1-yn-1-yl)-3-(2,2,2-trifluoroethyl)benzo[b]thiophen-7-yl)-2-methyl-2-azabicyclo[2.2.1]heptan-5-amine] | 235 nM |
| COc1cc(S(C)(=O)=O)ccc1NCC#Cc1sc2c(NC3CC4CC3CN4)cccc2c1CC(F)(F)F (stereo not shown) [Example 28, N-(2-(3-((2-methoxy-4-(methylsulfonyl)phenyl)amino)prop-1-yn-1-yl)-3-(2,2,2-trifluoroethyl)benzo[b]thiophen-7-yl)-2-azabicyclo[2.2.1]heptan-5-amine] | 284 nM |
| CN1CCC(Nc2cccc3c(CC(F)(F)F)c(C#CCNc4cccc5cc[nH]c45)sc23)CC1 [Example 29, N-(3-(7-((1-methylpiperidin-4-yl)amino)-3-(2,2,2-trifluoroethyl)benzo[b]thiophen-2-yl)prop-2-yn-1-yl)-1H-indol-7-amine] | 6400 nM |
| CN1CCC(Nc2cccc3c(CC(F)(F)F)c(C#CCNc4cccc5c(C6CCNCC6)c[nH]c45)sc23)CC1 [Example 30, N-(3-(7-((1-methylpiperidin-4-yl)amino)-3-(2,2,2-trifluoroethyl)benzo[b]thiophen-2-yl)prop-2-yn-1-yl)-3-(piperidin-4-yl)-1H-indol-7-amine] | 452 nM |
| CN1CCC(Nc2cccc3c(CC(F)(F)F)c(C#CCNc4ccc(S(C)(=O)=O)c5cc[nH]c45)sc23)CC1 [Example 31, N-(3-(7-((1-methylpiperidin-4-yl)amino)-3-(2,2,2-trifluoroethyl)benzo[b]thiophen-2-yl)prop-2-yn-1-yl)-4-(methylsulfonyl)-1H-indol-7-amine] | 535 nM |
| COc1cc(S(C)(=O)=O)ccc1NCC#Cc1sc2c(NC3CC4(CCN(C)CC4)C3)cccc2c1CC(F)(F)F [Example 33, N-(2-(3-((2-methoxy-4-(methylsulfonyl)phenyl)amino)prop-1-yn-1-yl)-3-(2,2,2-trifluoroethyl)benzo[b]thiophen-7-yl)-7-methyl-7-azaspiro[3.5]nonan-2-amine] | 621 nM |

The next compounds have a lower EC50 than those just listed; values first:

| EC50 | Compound |
| --- | --- |
| 173 nM | COc1cc(S(C)(=O)=O)ccc1NCC#Cc1sc2c(N[C@H]3CC[C@H](N4CC5(CCOCC5)C4)CC3)cccc2c1CC(F)(F)F [Example 18, Trans-N-(4-(7-oxa-2-azaspiro[3.5]nonan-2-yl)cyclohexyl)-2-(3-((2-methoxy-4-(methylsulfonyl)phenyl)amino)prop-1-yn-1-yl)-3-(2,2,2-trifluoroethyl)benzo[b]thiophen-7-amine] |
| 170 nM | CN1CCC(Nc2cccc3c(CC(F)(F)F)c(C#CCNc4ccc(S(C)(=O)=O)cc4OCC(F)(F)F)sc23)CC1 [Example 13, 1-methyl-N-(2-(3-((4-(methylsulfonyl)-2-(2,2,2-trifluoroethoxy)phenyl)amino)prop-1-yn-1-yl)-3-(2,2,2-trifluoroethyl)benzo[b]thiophen-7-yl)piperidin-4-amine] |
| 169 nM | COc1cc(S(C)(=O)=O)ccc1NCC#Cc1sc2c(NC3CC4CCC(C3)N4C)cccc2c1CC(F)(F)F (stereo not shown) [Example 26, N-(2-(3-((2-methoxy-4-(methylsulfonyl)phenyl)amino)prop-1-yn-1-yl)-3-(2,2,2-trifluoroethyl)benzo[b]thiophen-7-yl)-8-methyl-8-azabicyclo[3.2.1]octan-3-amine] |
| 124 nM | COc1cc(S(C)(=O)=O)ccc1NCC#Cc1sc2c(NC3CCC(N(C)C)CC3)cccc2c1CC(F)(F)F (stereo not shown) [Example 16, N1-(2-(3-((2-methoxy-4-(methylsulfonyl)phenyl)amino)prop-1-yn-1-yl)-3-(2,2,2-trifluoroethyl)benzo[b]thiophen-7-yl)-N4,N4-dimethylcyclohexane-1,4-diamine] |
| 100 nM | COc1cc(S(N)(=O)=O)ccc1NCC#Cc1sc2c(NC3CCN(C)CC3)cccc2c1CC(F)(F)F [Example 23, 3-methoxy-4-((3-(7-((1-methylpiperidin-4-yl)amino)-3-(2,2,2-trifluoroethyl)benzo[b]thiophen-2-yl)prop-2-yn-1-yl)amino)benzenesulfonamide] |
| 72 nM | COc1cc(S(C)(=O)=O)ccc1NCC#Cc1sc2c(N[C@H]3CC[C@H](N4CC5(COC5)C4)CC3)cccc2c1CC(F)(F)F [Example 17, trans-N-(4-(2-oxa-6-azaspiro[3.3]heptan-6-yl)cyclohexyl)-2-(3-((2-methoxy-4-(methylsulfonyl)phenyl)amino)prop-1-yn-1-yl)-3-(2,2,2-trifluoroethyl)benzo[b]thiophen-7-amine] |
| 56 nM | COc1cc(S(=O)(=O)NCC(O)CO)ccc1NCC#Cc1sc2c(NC3CCN(C)CC3)cccc2c1CC(F)(F)F (stereo not shown) [Example 24, N-(2,3-dihydroxypropyl)-3-methoxy-4-((3-(7-((1-methylpiperidin-4-yl)amino)-3-(2,2,2-trifluoroethyl)benzo[b]thiophen-2-yl)prop-2-yn-1-yl)amino)benzenesulfonamide] |
| 38 nM | CCP(=O)(CC)c1ccc(NCC#Cc2sc3c(NC4CCN(C)CC4F)cccc3c2CC(F)(F)F)c(OC)c1 (stereo not shown) [Example 35, diethyl(4-((3-(7-(((Z)-3-fluoro-1-methylpiperidin-4-yl)amino)-3-(2,2,2-trifluoroethyl)benzo[b]thiophen-2-yl)prop-2-yn-1-yl)amino)-3-methoxyphenyl)phosphine oxide] |
